“And” between values parts separate entries of the source, which are not always exact repeats. Identical values can stand only once.
Columns and labels:
spleen = test: Spleen weight, splenocytes and splenic CD8+ EM T cell signaling in AT3-OVA tumor-bearing mice; type: in vivo, mouse
Method: Single-cell suspensions from spleens and lymph nodes were obtained as described previously. For the detection of intracellular cytokines and granzyme B, T cells were fixed and permeabilized with the BD Cytofix/Cytoperm kit according to the manufacturer’s instructions. Briefly, T cells were first surface stained with fluorophore-conjugated antibodies and then fixed followed by permeabilization on ice for 20 min. Fixed and permeabilized cells were stained for IFN-γ, TNF, and granzyme B for 45 min at room temperature. For the detection of intracellular FoxP3 the Foxp3/Transcription Factor Staining Buffer Set (eBioscience) was used according to the manufacturer’s instructions. Briefly, cells were fixed and permeabilized for 1 h on ice followed by intracellular staining at room temperature for 45 min. For the detection of serum cytokines, the BD CBA Mouse Inflammation Kit™ was used according to the manufacturers’ instructions.
Cells (1 × 10^6/10 µl) were stained with the specified antibodies on ice for 30 min in D-PBS supplemented with 2% FBS in the dark and analyzed using a Fortessa or Symphony A3 (BD Biosciences). Data was acquired using BD FACS DIVA Software v8.0.1 and analyzed using FlowJo10 (Tree Star Inc.) software. Lymphocytes were gated for eYFP^+ cells to discriminate between PTPN2 sufficient and PTPN2 negative cells after poly(I:C)-induced PTPN2-deletion in Mx1-Cre;Ptpn2^fl/fl mice. For cell quantification, known numbers of Flow-Count Fluorospheres (Beckman Coulter) were added to samples before analysis. Dead cells were excluded with propidium iodide (1 μg/ml; Sigma-Aldrich). Paraformaldehyde fixed dead cells were excluded with the LIVE/DEAD™ Fixable Near-IR Dead Cell Stain Kit (Thermo Fisher Scientific).
OVA mammary tumor cells were injected into the fourth inguinal mammary fat pads of 8 week- […]
n=8) or saline (n=8) on days (d) 6, 8, 10, 12, 14, 16, 18 and 21 after tumor cell implantation. […]
CD44hiCD62Llo CD8+ and CD4+ effector/memory (EM) T cells, CD4+CD25+FoxP3+ regulatory T cells (Tregs) and granulocytic and monocytic […]
CD8+ and CD4+ EM T cells were analysed by flow cytometry. In (a-d) representative results (means ± SEM) from at least two independent experiments are shown. In (d) significances were determined using a 1-way ANOVA Test.

[1] = tested on: STAT-1 target genes in AT3 tumors; test: qPCR of STAT-1 target genes in AT3 tumors; type: in vivo, mouse
Method: For quantitative real-time PCR analysis, RNA from tumors was isolated using RNAzol (Sigma-Aldrich, St. Louis, MO), and RNA quality was assessed using a NanoDrop 2000 (Thermo Fisher Scientific, Waltham MA). mRNA was reverse-transcribed using the High-Capacity cDNA Reverse Transcription Kit (Applied Biosystems, Thermo Fisher Scientific, Waltham, MA) and processed for quantitative Real-Time PCR using the Fast SYBR Green Master Mix (Applied Biosystems, Thermo Fisher Scientific, Waltham MA) and PrimePCR™ SYBR Green Assays (Bio-Rad, Hercules, CA) for Cxcl9 (qMmuCID0023784), Cxcl10 (qMmuCED0049500), Tapbp (qMmuCEP0035035), Tap1 (qMmuCEP0057739), […], H2ab1 (qMmuCIP0029038), Cd274 (qMmuCED0044192), H2k1 (qMmuCEP0034842), Tnf (qMmuCED0004141) and Ifng (qMmuCID0006268). Relative gene expression was determined by normalization to the house-keeping gene Rps18 (qMmuCED0045430) or Gapdh (qMmuCED0027497). Gene quantification was performed with the comparative Ct (ΔΔCt) method.

PTPN2 = target: T1, PTPN2 (Homo sapiens, UniProt P17706); test: Jump-dilution assay; type: biochemical; details: 30 min preincubation, 50-fold dilution into 100 µM DiFMUP
T1 construct: PTPN2, residues 1-387; made in house; host or cells: E. coli BL21(DE3)
T1 sequence (P17706 1-387 isoform P17706-2): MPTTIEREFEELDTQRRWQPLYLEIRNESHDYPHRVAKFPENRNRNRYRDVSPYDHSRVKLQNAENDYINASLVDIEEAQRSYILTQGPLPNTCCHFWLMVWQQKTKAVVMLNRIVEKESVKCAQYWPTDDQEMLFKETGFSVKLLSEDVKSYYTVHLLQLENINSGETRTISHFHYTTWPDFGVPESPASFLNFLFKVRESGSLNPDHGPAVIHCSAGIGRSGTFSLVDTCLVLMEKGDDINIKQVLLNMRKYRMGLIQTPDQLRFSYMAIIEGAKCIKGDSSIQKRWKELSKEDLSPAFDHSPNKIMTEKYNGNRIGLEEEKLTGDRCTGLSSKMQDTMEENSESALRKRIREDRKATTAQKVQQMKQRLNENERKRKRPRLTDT
Method: The reaction was allowed to proceed for 10 min under room temperature and was quenched by addition of a 160 µM solution of bpV(Phen). The fluorescence signal was measured using a CLARIOstar Plus Microplate Spectrophotometer (BMG Labtech) using excitation and emission wavelengths of 340 nm and 450 nm, respectively. Data were fitted using Prism GraphPad 9.2.0.

AT3 mammary tumors = test: AT3 mammary tumor growth in C57BL/6 mice; type: in vivo, mouse
Method: Male or female mice were injected subcutaneously with 5 × 10^5 MC38 tumor cells resuspended in 100 μl D-PBS into the flank. Alternatively, female mice were injected orthotopically with 5 × 10^5 AT3 or AT3-OVA or PTPN2-deleted AT3 or AT3-OVA tumor cells resuspended in 20 μl D-PBS into the fourth mammary fat pad. Tumor sizes were measured in two dimensions (mm^2) using electronic callipers two to three times per week as soon as tumors were palpable (20–25 mm^2).

[2] = splenic CD8+ EM T cells, 10 mg/kg i.v., Fig. 3E raw data, listed as CMP-182, 10 mg/kg
[3] = Figure 9A, qPCR in tumour, individual mice, CMP-182 vs Saline

Q: How did the “basal p-SFK and p-STAT-5 in splenic CD8+ effector/memory T cells” value (spleen; 10 mg/kg i.v.) turn out when `CC(C)(O)CCOc1ccc2cc(O)c(N3CC(=O)NS3(=O)=O)c(F)c2c1` [Compound 182, 5-(1-Fluoro-3-hydroxy-7-(3-hydroxy-3-methylbutoxy)naphthalen-2-yl)−1,2,5-thiadiazolidin-3-one 1,1-dioxide] was run?
A: Its value is “enhanced”.

Q: And the “spleen weights and splenic T cell and myeloid numbers” value (spleen; AT3-OVA tumor-bearing mice, 10 mg/kg i.v.)?
A: Its value is “unaltered”.

Q: And the “B cells Spleen (median)” value (spleen; Figure 3C, column B, n=8)?
A: Its value is 1202070, n=8.

Q: And the “Nk cells Spleen (median)” value (spleen; Figure 3C, column B, n=8)?
A: Its value is 1062533, n=8.

Q: What about the “pSFK CD8 EM (median)” value (spleen; Figure 3E, column B, n=8) of the same compound?
A: Its value is 356.5, n=8.

Q: What about the “pSTAT5 CD8 EM (median)” value (spleen; Figure 3E, column B, n=8) of the same compound?
A: Its value is 960.5, n=8.

Q: And the “p-SFK MFIs, single mice” value (spleen; [2])?
A: Its value is 362 and 359 and 441 and 347 and 414 and 282 and 298 and 354.

Q: What about the “p-STAT-5 MFIs, single mice” value (spleen; [2]) of the same compound?
A: The value was 1043 and 825 and 973 and 931 and 1046 and 926 and 948 and 1137.

Q: What about the “expression of STAT-1 target genes, including Cd274, in AT3 tumors” value ([1]; 10 mg/kg i.v.) of the same compound?
A: Its value is “increased expression”.

Q: What about the cd274 [1, 3] of the same compound?
A: Its cd274 is 1.71 and 1.441 and 1.3642 and 1.436 and 2.196 and 0.7307.

Q: What about the cxcl9 [1, 3] of the same compound?
A: Its cxcl9 is 2.179 and 2.3662 and 1.906 and 0.2814 and 3.487 and 0.6344.

Q: And the cxcl10 [1, 3]?
A: The cxcl10 was 1.765 and 1.612 and 1.49 and 0.6644 and 2.144 and 0.8593.

Q: And the reversibility of inhibition (PTPN2)?
A: The reversibility of inhibition was “reversible”.

Q: And the “Tumour weights AT-3, individual mice” value (AT3 mammary tumors; 10 mg, Figure 4D, listed as CMP-182, in mg (unit assumed))?
A: The value was 433 and 615 and 255 and 610 and 642 and 344.

Q: And the “Tumour growth AT-3, individual mice” value (AT3 mammary tumors; 10 mg, day 10 post injection, listed as CMP-182, in mm2)?
A: Its value is 18.92 and 38.28 and 21.93 and 30.78 and 35.75 and 25.97.

Q: And the “Tumour growth AT-3, individual mice” value (AT3 mammary tumors; 10 mg, day 13 post injection, listed as CMP-182, in mm2)?
A: Its value is 24.01 and 35.1 and 25.44 and 30.24 and 37.12 and 27.5.

Q: What about the “Tumour growth AT-3, individual mice” value (AT3 mammary tumors; 10 mg, day 16 post injection, listed as CMP-182, in mm2) of the same compound?
A: The value was 28.5 and 42.21 and 23.76 and 29.58 and 41.04 and 36.4.

Q: And the “Tumour growth AT-3, individual mice” value (AT3 mammary tumors; 10 mg, day 19 post injection, listed as CMP-182, in mm2)?
A: The value was 40.71 and 52.8 and 61.32 and 46.5 and 44.4 and 42.9.

Q: And the “Tumour growth AT-3, individual mice” value (AT3 mammary tumors; 10 mg, day 22 post injection, listed as CMP-182, in mm2)?
A: Its value is 40.95 and 59.13 and 71.25 and 50.16 and 54.4 and 49.4.

Q: And the “Tumour growth AT-3, individual mice” value (AT3 mammary tumors; 10 mg, day 25 post injection, listed as CMP-182, in mm2)?
A: Its value is 70.31 and 63.7 and 89.04 and 67.08 and 73.15 and 57.67.

Q: And the “Tumour growth AT-3, individual mice” value (AT3 mammary tumors; 10 mg, day 27 post injection, listed as CMP-182, in mm2)?
A: Its value is 77.08 and 74.4 and 63 and 65.86 and 98.28 and 55.44.

Q: What about the “growth of orthotopic AT3 mammary tumors” value (AT3 mammary tumors; 10 mg/kg i.v. every 2 days) of the same compound?
A: The value was “repressed the growth”.

Q: What about the “Tumour weights, median” value (AT3 mammary tumors; AT-3 tumours, CMP-182 10 mg, n=6, Figure 4D) of the same compound?
A: The value was 521.5, n=6.

Q: What about the “Tumour size, predicted column mean over all time points” value (AT3 mammary tumors; AT-3 tumours, CMP-182 10 mg, n=6, Figure 4D, in mm2) of the same compound?
A: The value was 48.13.

Q: And the “Tumour size, Mean 2” value (AT3 mammary tumors; AT-3 tumours, CMP-182 10 mg, n=6, time point 10, Figure 4D, in mm2)?
A: Its value is 28.61.

Q: What about the “Tumour size, Mean 2” value (AT3 mammary tumors; AT-3 tumours, CMP-182 10 mg, n=6, time point 13, Figure 4D, in mm2) of the same compound?
A: The value was 29.9.

Q: What about the “Tumour size, Mean 2” value (AT3 mammary tumors; AT-3 tumours, CMP-182 10 mg, n=6, time point 16, Figure 4D, in mm2) of the same compound?
A: Its value is 33.58.

Q: What about the “Tumour size, Mean 2” value (AT3 mammary tumors; AT-3 tumours, CMP-182 10 mg, n=6, time point 19, Figure 4D, in mm2) of the same compound?
A: Its value is 48.11.

Q: And the “Tumour size, Mean 2” value (AT3 mammary tumors; AT-3 tumours, CMP-182 10 mg, n=6, time point 22, Figure 4D, in mm2)?
A: Its value is 54.22.

Q: And the “Tumour size, Mean 2” value (AT3 mammary tumors; AT-3 tumours, CMP-182 10 mg, n=6, time point 25, Figure 4D, in mm2)?
A: Its value is 70.16.

Q: What about the “Tumour size, Mean 2” value (AT3 mammary tumors; AT-3 tumours, CMP-182 10 mg, n=6, time point 27, Figure 4D, in mm2) of the same compound?
A: Its value is 72.34.

— article PMC10374545, “A small molecule inhibitor of PTP1B and PTPN2 enhances T cell anti-tumor immunity” (Nature Communications, 2023)
